Data taken from PubChem BioAssay AID248 (DTP/NCI, 2004).
Toxic doses and inconclusive results are not listed. Cut-off read from the data, not from the text of the source: active = T/C of 150% or more; inactive = T/C below 125%.

Test system: L1210 leukemia ip in BDF1 mice, survival T/C
Assay: NCI In Vivo Anticancer Drug Screen. Data for tumor model L1210 Leukemia (intraperitoneal) in B6D2F1 (BDF1) mice
Conditions: endpoint: mean survival time, higher = longer survival
Outline: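 Survival endpoint. Drug-treated group vs vehicle group, expressed as T divided by C. Tumor passaged by transplantation.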

[1] = dose: 100.0 mg/kg/injection, schedule: Q01DX009 (ip), vehicle: saline
[2] = dose: 100.0 mg/kg/injection, schedule: Q04DX003 (ip), vehicle: saline
[3] = dose: 200.0 mg/kg/injection, schedule: Q01DX009 (ip), vehicle: saline
[4] = dose: 200.0 mg/kg/injection, schedule: Q04DX003 (ip), vehicle: saline
[5] = dose: 400.0 mg/kg/injection, schedule: Q01DX009 (ip), vehicle: saline
[6] = dose: 400.0 mg/kg/injection, schedule: Q04DX003 (ip), vehicle: saline
[7] = dose: 100.0 mg/kg/injection, schedule: Q04DX002 (ip), vehicle: Klucel (hydroxypropylcellulose) (HPC)
[8] = dose: 50.0 mg/kg/injection, schedule: Q01DX001 (ip), vehicle: other
[9] = dose: 100.0 mg/kg/injection, schedule: Q01DX001 (ip), vehicle: other
[10] = dose: 100.0 mg/kg/injection, schedule: Q01DX001 (ip), vehicle: saline
[11] = dose: 200.0 mg/kg/injection, schedule: Q01DX001 (ip), vehicle: saline
[12] = dose: 400.0 mg/kg/injection, schedule: Q01DX001 (ip), vehicle: saline
[13] = dose: 100.0 mg/kg/injection, schedule: Q01DX009 (ip), vehicle: saline with Tween-80
[14] = dose: 200.0 mg/kg/injection, schedule: Q01DX009 (ip), vehicle: saline with Tween-80

Measured: T/C

COc1ccc(/C=N/NC(=O)c2ccccc2OC)cc1
inactive: [1] 108 % of control | [2] 108 % of control | dose: 130.0 mg/kg/injection, schedule: Q01DX009 (ip), vehicle: saline 104 % of control | [3] 92 % of control | [4] 102 % of control | dose: 300.0 mg/kg/injection, schedule: Q01DX009 (ip), vehicle: saline 92 % of control | [5] 114 % of control | [6] 102 % of control

CC(C)OC(=O)Nc1cccc(Br)c1
inactive: [7] 92 % of control | dose: 200.0 mg/kg/injection, schedule: Q04DX002 (ip), vehicle: Klucel (hydroxypropylcellulose) (HPC) 106 % of control | dose: 400.0 mg/kg/injection, schedule: Q04DX002 (ip), vehicle: Klucel (hydroxypropylcellulose) (HPC) 95 % of control

CC1=CC(=O)C=CC1=O
inactive: dose: 5.0 mg/kg/injection, schedule: Q01DX001 (ip), vehicle: saline 107 % of control

Cn1c(=O)c2c(nc(OCCC3CCCCC3)n2C)n(C)c1=O
inactive: [8] 90 % of control | [9] 95 % of control | dose: 200.0 mg/kg/injection, schedule: Q01DX001 (ip), vehicle: other 90 % of control | dose: 400.0 mg/kg/injection, schedule: Q01DX001 (ip), vehicle: other 93 % of control

CN1c2ccccc2NP1(=S)c1ccccc1 (configuration not stated)
inactive: dose: 100.0 mg/kg/injection, schedule: Q04DX002 (ip), vehicle: saline with Tween-80 90 % of control | dose: 200.0 mg/kg/injection, schedule: Q04DX002 (ip), vehicle: saline with Tween-80 90 % of control | dose: 400.0 mg/kg/injection, schedule: Q04DX002 (ip), vehicle: saline with Tween-80 87 % of control

Cn1ncc2[nH]c(=O)n(OS(=O)(=O)c3ccccc3)c(=O)c21
inactive: dose: 50.0 mg/kg/injection, schedule: Q01DX001 (ip), vehicle: saline 100 % of control | [10] 96 % of control | [11] 96 % of control | [12] 87 % of control

O=C(O)c1ccc(C(=O)O)c([N+](=O)[O-])c1
inactive: [2] 102 % of control | [4] 100 % of control | [6] 96 % of control

C/C=C1/CN(C)C2Cc3c([nH]c4ccccc34)C(c3cc4[nH]c5c(c4cc3OC)CCN3CC4CC(C(C)O)C3C5(C(=O)OC)C4)CC1C2C(=O)OC (configuration not stated)
inactive: dose: 10.0 mg/kg/injection, schedule: Q01DX Z (ip), vehicle: other 97 % of control | dose: 20.0 mg/kg/injection, schedule: Q01DX Z (ip), vehicle: other 93 % of control | dose: 30.0 mg/kg/injection, schedule: Q01DX Z (ip), vehicle: other 90 % of control | dose: 30.0 mg/kg/injection, schedule: Q02DX Z (ip), vehicle: other 104 % of control | dose: 40.0 mg/kg/injection, schedule: Q01DX Z (ip), vehicle: other 95 % of control | dose: 40.0 mg/kg/injection, schedule: Q01DX Z (ip), vehicle: water 90 % of control | dose: 40.0 mg/kg/injection, schedule: Q02DX Z (ip), vehicle: other 103 % of control | dose: 60.0 mg/kg/injection, schedule: Q02DX Z (ip), vehicle: other 102 % of control | dose: 80.0 mg/kg/injection, schedule: Q01DX Z (ip), vehicle: water 94 % of control | dose: 80.0 mg/kg/injection, schedule: Q02DX Z (ip), vehicle: other 95 % of control

Cc1cc(S(=O)(=O)Cl)c(Cl)cc1Cl
inactive: [10] 96 % of control | [11] 103 % of control | [12] 96 % of control

CCCC(CC#N)(CCC)CCC
inactive: dose: 37.5 mg/kg/injection, schedule: Q01DX Z (ip), vehicle: carboxymethylcellulose (CMC) 97 % of control | dose: 75.0 mg/kg/injection, schedule: Q01DX Z (ip), vehicle: carboxymethylcellulose (CMC) 101 % of control | dose: 100.0 mg/kg/injection, schedule: Q01DX Z (ip), vehicle: carboxymethylcellulose (CMC) 95 % of control | dose: 200.0 mg/kg/injection, schedule: Q01DX Z (ip), vehicle: carboxymethylcellulose (CMC) 100 % of control

CSc1nc2c(=O)[nH]cnc2n1C1OC(CO)C(O)C1O (configuration not stated)
inactive: [10] 97 % of control | [11] 111 % of control | [12] 103 % of control

CCc1ccccc1NC(=O)Oc1cccc(C(F)(F)F)c1
inactive: [1] 104 % of control | [3] 94 % of control | [5] 103 % of control

CCOC(=O)C(=CNc1cnc(SC)[nH]c1=O)C(=O)OCC
inactive: [2] 91 % of control | [4] 93 % of control | [6] 89 % of control

Clc1ccccc1/C=C/c1ccccn1
inactive: dose: 6.25 mg/kg/injection, schedule: Q04DX002 (ip), vehicle: DMSO 102 % of control | dose: 12.5 mg/kg/injection, schedule: Q04DX002 (ip), vehicle: DMSO 98 % of control | dose: 25.0 mg/kg/injection, schedule: Q04DX002 (ip), vehicle: DMSO 109 % of control | dose: 100.0 mg/kg/injection, schedule: Q04DX002 (ip), vehicle: DMSO 94 % of control

CC(C)(C)c1cc(/C=N/NC(=O)CC2CCCCC2)cc(C(C)(C)C)c1O
inactive: [13] 92 % of control | [14] 92 % of control | dose: 400.0 mg/kg/injection, schedule: Q01DX009 (ip), vehicle: saline with Tween-80 97 % of control

O=c1cnc2ccc3ccccc3c2[nH]1
inactive: dose: 25.0 mg/kg/injection, schedule: Q04DX002 (ip), vehicle: Klucel (hydroxypropylcellulose) (HPC) 97 % of control | dose: 50.0 mg/kg/injection, schedule: Q04DX002 (ip), vehicle: Klucel (hydroxypropylcellulose) (HPC) 93 % of control | [7] 90 % of control

C1CCN[N-]C1.C1CCN[N-]C1.[Cl][Pt+2]([Cl])([Cl])[Cl]
inactive: dose: 25.0 mg/kg/injection, schedule: Q04DX003 (ip), vehicle: water 111 % of control | dose: 50.0 mg/kg/injection, schedule: Q04DX003 (ip), vehicle: water 102 % of control | dose: 100.0 mg/kg/injection, schedule: Q04DX003 (ip), vehicle: water 102 % of control

CCOC(=O)c1ccc(C(=O)OCC)nc1
inactive: dose: 12.5 mg/kg/injection, schedule: Q01DX009 (ip), vehicle: saline 109 % of control | dose: 25.0 mg/kg/injection, schedule: Q01DX009 (ip), vehicle: saline 94 % of control | dose: 50.0 mg/kg/injection, schedule: Q01DX009 (ip), vehicle: saline 101 % of control | [13] 87 % of control | dose: 100.0 mg/kg/injection, schedule: Q04DX003 (ip), vehicle: saline with Tween-80 101 % of control | dose: 200.0 mg/kg/injection, schedule: Q04DX003 (ip), vehicle: saline with Tween-80 106 % of control | dose: 400.0 mg/kg/injection, schedule: Q04DX003 (ip), vehicle: saline with Tween-80 103 % of control

OCC1=C(CO)C2(Cl)C(Cl)=C(Cl)C1(Cl)C2(Cl)Cl
inactive: dose: 100.0 mg/kg/injection, schedule: Q01DX009 (ip), vehicle: Klucel (hydroxypropylcellulose) (HPC) 100 % of control | [2] 105 % of control | dose: 200.0 mg/kg/injection, schedule: Q01DX009 (ip), vehicle: Klucel (hydroxypropylcellulose) (HPC) 105 % of control | [4] 100 % of control | dose: 400.0 mg/kg/injection, schedule: Q01DX009 (ip), vehicle: Klucel (hydroxypropylcellulose) (HPC) 88 % of control | [6] 98 % of control

CC(C)CC1NC(=O)N(C)C1=O (configuration not stated)
inactive: dose: 75.0 mg/kg/injection, schedule: Q01DX001 (ip), vehicle: carboxymethylcellulose (CMC) 95 % of control | dose: 150.0 mg/kg/injection, schedule: Q01DX001 (ip), vehicle: carboxymethylcellulose (CMC) 100 % of control | dose: 300.0 mg/kg/injection, schedule: Q01DX001 (ip), vehicle: carboxymethylcellulose (CMC) 100 % of control

CCOc1ccc(N=Nc2c(C)nn(C(N)=S)c2-c2ccccc2)cc1
inactive: dose: 10.0 mg/kg/injection, schedule: Q01DX001 (ip), vehicle: saline 103 % of control | dose: 20.0 mg/kg/injection, schedule: Q01DX001 (ip), vehicle: saline 94 % of control | dose: 40.0 mg/kg/injection, schedule: Q01DX001 (ip), vehicle: saline 88 % of control

c1ccc2[nH]c(N3CCOCC3)nc2c1
inactive: dose: 50.0 mg/kg/injection, schedule: Q01DX009 (ip), vehicle: saline with Tween-80 100 % of control | [13] 107 % of control | [2] 96 % of control | [14] 96 % of control | [4] 97 % of control | [6] 103 % of control

CCCS/C(N)=N/N=C/c1ccc([N+](=O)[O-])o1
inactive: [8] 96 % of control | [9] 94 % of control
